# Results: patent US20240024266A1, “Therapeutic Agent or Prophylactic Agent for COVID-19” (priority 2020, published 2024)
# Where two headings read alike, the source gives them in different places.
# Tested on: SARS-CoV-2
# Assay: Confirmation test of suppressing effect against SARS-CoV-2 proliferation (nucleocapsid Western blotting, VeroE6/TMPRSS2 cells)
# Type: cell-based
# Settings: for inhibition at 20 µM: Severe acute respiratory syndrome coronavirus 2, VeroE6/TMPRSS2, 8 h, read-out: Inhibition Rate
# [1] = 20 μM Pin1 inhibitor, VeroE6/TMPRSS2 cells, MOI 10, cell lysate 8 hours after infection, nucleocapsid band area vs no inhibitor
structure (smiles),measurement,setting,value
O=C(O[C@H](Cc1ccc2ccccc2c1)C(=O)O)c1ccc2ccccc2c1 [H-30],inhibition at 20 µM,[1],99%
COc1ccc(-c2cc(C(=O)O[C@H](Cc3ccc4ccccc4c3)C(=O)O)c(C)o2)cc1 [H-32],inhibition at 20 µM,[1],86%
O=C(O[C@H](Cc1ccc2ccccc2c1)C(=O)O)c1ccc(-c2ccccc2)cc1 [H-33],inhibition at 20 µM,[1],100%
O=C(Nc1ccc(OCc2ccccc2)cc1C(=O)O)OCc1ccccc1 [H-78],inhibition at 20 µM,[1],96%
O=C(N[C@H](Cc1c[nH]c2ccccc12)C(=O)O)OCC1c2ccccc2-c2ccccc21 [H-95],inhibition at 20 µM,[1],95%
O=C(CC1c2ccccc2-c2ccccc21)N[C@H](Cc1ccc2ccccc2c1)C(=O)O [H-103],inhibition at 20 µM,[1],100%
O=C(N[C@H](Cc1ccc2ccccc2c1)C(=O)OCc1ccccc1)C1c2ccccc2-c2ccccc21 [H-105],inhibition at 20 µM,[1],100%
O=C(CC1c2ccccc2-c2ccccc21)O[C@H](Cc1ccc2ccccc2c1)C(=O)O [H-106],inhibition at 20 µM,[1],100%
O=C(O[C@H](Cc1ccc2ccccc2c1)C(=O)O)c1ccc(Oc2ccccc2)cc1 [H-123],inhibition at 20 µM,[1],99%
O=C(O[C@H](Cc1ccc2ccccc2c1)C(=O)O)c1cccc(Oc2ccccc2)c1 [H-130],inhibition at 20 µM,[1],100%
O=C(O[C@H](Cc1ccc2ccccc2c1)C(=O)O)c1ccccc1Oc1ccccc1 [H-132],inhibition at 20 µM,[1],99%
O=C(O[C@H](Cc1ccc2ccccc2c1)C(=O)O)C(c1ccccc1)c1ccccc1 [H-134],inhibition at 20 µM,[1],98%
O=C(Cc1ccc2ccccc2c1)O[C@H](Cc1ccc2ccccc2c1)C(=O)O [H-149],inhibition at 20 µM,[1],99%
O=C(Cc1cccc2ccccc12)O[C@H](Cc1ccc2ccccc2c1)C(=O)O [H-151],inhibition at 20 µM,[1],98%
O=C(O)[C@@H](Cc1ccc2ccccc2c1)OC(=O)N1c2ccccc2Oc2ccccc21 [H-157],inhibition at 20 µM,[1],100%
O=C(O)[C@@H](Cc1ccc2ccccc2c1)NC(=O)N1c2ccccc2Oc2ccccc21 [H-162],inhibition at 20 µM,[1],99%
O=C(O)[C@@H](Cc1ccc2ccccc2c1)OC(=O)n1c2ccccc2c2ccccc21 [H-175],inhibition at 20 µM,[1],100%
O=C(COc1ccc2ccccc2c1)O[C@H](Cc1ccc2ccccc2c1)C(=O)O [H-177],inhibition at 20 µM,[1],99%
O=C(COc1cccc2ccccc12)O[C@H](Cc1ccc2ccccc2c1)C(=O)O [H-179],inhibition at 20 µM,[1],97%
O=C(O)[C@@H](Cc1ccc2ccccc2c1)OCc1ccc2ccccc2c1 [H-181],inhibition at 20 µM,[1],99%
COc1cc(OC)cc(C(=O)O[C@H](Cc2ccc3ccccc3c2)C(=O)O)c1 [H-198],inhibition at 20 µM,[1],67%
O=C(O[C@H](Cc1ccc2ccccc2c1)C(=O)O)c1cc(Cl)cc(Cl)c1 [H-200],inhibition at 20 µM,[1],98%
Cc1cc(C)cc(C(=O)O[C@H](Cc2ccc3ccccc3c2)C(=O)O)c1 [H-210],inhibition at 20 µM,[1],99%
CC(C)(C)OC(=O)N[C@@H](Cc1ccccc1)C(=O)O[C@H](Cc1ccc2ccccc2c1)C(=O)O [H-248],inhibition at 20 µM,[1],88%
COc1ccc2c(c1)C(C(=O)O[C@H](Cc1ccc3ccccc3c1)C(=O)O)c1ccccc1-2 (stereo partly shown) [H-254],inhibition at 20 µM,[1],94%
O=C(O[C@H](Cc1ccc2ccccc2c1)C(=O)O)C1c2ccccc2-c2ccc(F)cc21 (stereo partly shown) [H-262],inhibition at 20 µM,[1],94%
O=C(O[C@H](Cc1ccc2ccccc2c1)C(=O)O)C1c2ccccc2-c2ccc(Cl)cc21 (stereo partly shown) [H-263],inhibition at 20 µM,[1],54%
O=C(O[C@H](Cc1ccc2ccccc2c1)C(=O)O)c1ccc(Cl)c(Cl)c1 [H-269],inhibition at 20 µM,[1],98%
O=C(O)[C@@H](Cc1ccc(OCc2ccccc2)cc1)NC(=O)N1c2ccccc2Oc2ccccc21 [H-336],inhibition at 20 µM,[1],98%
O=C(O)[C@@H](Cc1ccc(OCc2ccccc2)cc1)NC(=O)n1c2ccccc2c2ccccc21 [H-337],inhibition at 20 µM,[1],100%
O=C(O)c1cc(OCc2ccccc2)ccc1NS(=O)(=O)c1ccc2ccccc2c1 [H-338],inhibition at 20 µM,[1],99%
O=C(Nc1ccc(OCc2ccccc2)cc1C(=O)O)c1ccc2ccccc2n1 [H-339],inhibition at 20 µM,[1],76%
O=C(O)[C@H](NC(=O)n1c2ccccc2c2ccccc21)c1ccccc1 [H-348],inhibition at 20 µM,[1],81%
O=C(COc1ccc2ccccc2c1)Nc1ccc(OCc2ccccc2)cc1C(=O)O [H-362],inhibition at 20 µM,[1],99%
O=C(Nc1ccc(OCc2ccccc2)cc1C(=O)O)c1cccc(Oc2ccccc2)c1 [H-363],inhibition at 20 µM,[1],99%
O=C(O)c1cc(OCc2ccccc2)ccc1NC(=O)c1cccc2ccccc12 [H-370],inhibition at 20 µM,[1],98%
O=C(Nc1ccc(OCc2ccc3ccccc3c2)cc1C(=O)O)c1ccc2ccccc2c1 [H-371],Inhibition Rate,[1],99%
COC(=O)[C@@H](Cc1ccc2ccccc2c1)NC(=O)n1c2ccccc2c2ccccc21 [H-393],inhibition at 20 µM,[1],80%
O=C(Nc1ccc(OCc2ccccc2)cc1C(=O)O)c1ccc2ccccc2c1 [H-429],inhibition at 20 µM,[1],99%
O=C(O[C@H](Cc1cccc2ccccc12)C(=O)O)c1ccc2ccccc2c1 [H-438],inhibition at 20 µM,[1],99%
O=C(O)c1cc(OCc2ccc3ccccc3c2)c(C(=O)O)cc1OCc1ccc2ccccc2c1 [H-444],inhibition at 20 µM,[1],55%
O=C(Nc1ccc(OCc2ccc3ccccc3c2)c(C(=O)O)c1)c1ccc2ccccc2c1 [H-448],inhibition at 20 µM,[1],100%
O=C(O[C@H](Cc1ccc2ccccc2c1)C(=O)O)c1cccc2ccccc12 [H-452],inhibition at 20 µM,[1],52%
O=C(O)[C@@H](Cc1ccc2ccccc2c1)OCc1ccccc1Oc1ccccc1 [H-464],inhibition at 20 µM,[1],100%
O=C(Nc1ccc(OCc2ccc3ccccc3c2)cc1C(=O)O)c1ccc2ccccc2c1 [H-487],Inhibition Rate,[1],63%
O=C(O)c1cc(OCc2ccc3ccccc3c2)ccc1OCc1ccc2ccccc2c1 [H-488],inhibition at 20 µM,[1],100%
O=C(O)c1ccc(OCc2ccc3ccccc3c2)cc1OCc1ccc2ccccc2c1 [H-489],inhibition at 20 µM,[1],99%
O=C(O)c1cc(OCc2ccc3ccccc3c2)cc(OCc2ccc3ccccc3c2)c1 [H-491],inhibition at 20 µM,[1],91%
O=C(O)CCC(Cc1ccc2ccccc2c1)OC(=O)c1ccc2ccccc2c1 (stereo not shown) [H-507],inhibition at 20 µM,[1],99%
O=C(O)[C@@H](Cc1cccc2ccccc12)NC(=O)n1c2ccccc2c2ccccc21 [H-509],inhibition at 20 µM,[1],98%
COc1ccc2cc(CC(OC(=O)c3ccc4ccccc4c3)C(=O)O)ccc2c1 (stereo not shown) [H-512],inhibition at 20 µM,[1],90%
O=C(O)CC(Cc1ccc2ccccc2c1)OC(=O)c1ccc2ccccc2c1 (stereo not shown) [H-514],inhibition at 20 µM,[1],99%
O=C(Cn1c2ccccc2c2ccccc21)N[C@H](Cc1ccc2ccccc2c1)C(=O)O [H-536],inhibition at 20 µM,[1],75%
COP(=O)(OC)OCC(COc1cccc2ccccc12)OCc1ccc2ccccc2c1 (stereo not shown) [H-546],inhibition at 20 µM,,83%
O=C(O)c1cc(NC(=O)n2c3ccccc3c3ccccc32)cc(NC(=O)n2c3ccccc3c3ccccc32)c1 [H-596],inhibition at 20 µM,[1],99%
O=C(O[C@H](Cc1ccc2ccccc2c1)C(=O)O)C1c2ccccc2-c2ccccc21 [H-614],inhibition at 20 µM,[1],96%
O=C(N[C@@H](CCCN1C(=O)c2ccccc2C1=O)C(=O)O)C1c2ccccc2-c2ccccc21 [H-619],inhibition at 20 µM,[1],94%
COC(=O)c1cc(NC(=O)c2ccc3ccccc3c2)c[n+](Cc2ccc3ccccc3c2)c1 [H-626],inhibition at 20 µM,[1],88%
O=C(C/C(=C\c1ccc2ccccc2c1)C(=O)O)NC1c2ccccc2-c2ccccc21 [H-644],inhibition at 20 µM,[1],95%
COC(=O)/C(=C/c1ccc2c(c1)OCO2)CC(=O)Nc1cccc2ccccc12 [H-669],inhibition at 20 µM,[1],64%
O=C(CC(Cc1ccc2c(c1)OCO2)C(=O)O)Nc1cccc2ccccc12 (stereo not shown) [H-674],inhibition at 20 µM,[1],50%
